The record followed here is patent US11001563B2, “SSAO inhibitor” (SHANDONG DANHONG PHARMACEUTICAL CO., LTD., priority 2017, dated 2021).

Data set [1] concerns CCl4-induced chronic liver fibrosis. In words: Oral CCl4-induced chronic liver fibrosis male C57BL/6 model. The class given is in vivo, C57BL/6 mice. To be noted: oral daily for 28 days, in words. As for the experimental part: The therapeutic effect of compounds on an oral CCl4-induced chronic liver fibrosis male C57BL/6 model was tested. Male C57BL/6 mice, 7-8 weeks old; Experimental method: Male C57BL/6 mice were orally administered from the day CCl4 was put for modeling, and administered daily. Continuous administration was conducted for 28 days. The animals were fasted for at least 6 hours on the next day after the last administration. Animal weight was measured during euthanasia and all animals were euthanized under the guidance of the KCl Animal Euthanasia SOP. Non-anticoagulant venous blood of mice was collected from the ocular venous plexus. The whole blood was allowed to stand at room temperature for 30 minutes, and centrifuged at 5000 rpm for 5 minutes, and the serum was separated and placed in a 1.5 ml EP tube and stored at -80° C. After the whole body of the animal was perfused with hypothermic saline, the liver was taken and subjected to tissue gross image acquisition. The left lobe of the liver was divided into 4 equal parts and put into 4 tissue cryotubes for liquid nitrogen freezing, and then transferred to -80 OC for storage. The rest of the liver tissue was fixed in 10% neutral formalin fixative. […] HE staining was subjected to double-blind score by two pathological readers, and the area of hepatic fibrosis was analyzed for sirius-red stained sections by digital pathology.

Another data set concerns the target hERG potassium channel (Homo sapiens (Human), UniProt Q12809). In words: Inhibition test of hERG potassium ion channel (automatic patch clamp, CHO-hERG cells). Format: cell-based. As for the experimental part:
The effect of the to-be-tested compound on the potassium ion channel of hERG was detected by a fully automatic patch clamp method.
The cells stably expressing hERG potassium channel used in the experiment were obtained from CHO-hERE of Aviva Biosciences, and CHO-hERG was cultured in 5% CO2 at 37° C.
CHO-hERG cells prepared for the experiment were cultured for at least two days, and the cell density reached 75% or more. Prior to the start of the experiment, cells were digested with TrypLE and then resuspended in extracellular fluid to collect the cells.
The to-be-tested compound and the positive control Amitriptyline were dissolved in DMSO to a certain concentration of the stock solution, and then diluted according to different gradients, and finally added to the extracellular fluid in a certain ratio, and diluted to a concentration to be measured. Visual inspection was performed to see if there was any precipitation before the start of the experiment. Finally, the concentration of DMSO in the to-be-tested solution and the positive control Amitriptyline should not exceed 0.3%.
The clamping potential was kept at −80 mv, first a voltage stimulation of −50 mv was given for 80 ms to record the cell leakage current value, and then was depolarized to +20 mv to be maintained for 4800 ms, the channel of hERG was open, and then repolarized to −50 mv to be maintained 5000 ms, hERG tail current was led out and recorded, and finally, the voltage was returned to the clamping potential of −80 mv to be maintained for 3100 ms. The above voltage stimulation was repeated once every 15000 ms.
hERG QPatch^HTX experiment was performed at room temperature. A whole cell protocol, a voltage stimulation protocol and a compound detection protocol were established on the software of QPatch Assay Software 5.2 (Sophion Bioscience).
First, 30 repeated set voltage stimulations were performed, which was the baseline area for subsequent analysis, followed by the addition of 5 μl of extracellular fluid, repeated for three times. The concentration of each compound added in sequence was repeated three times in a volume of 5 μl. The cells were incubated for at least 5 min at each test concentration. During the entire recording process, the indicators needed to meet the data analysis acceptance criteria. If the standard was not met, the cells would not be included in the analysis scope, and the compounds would be retested. The above recording process was automatically operated by Qpatch analysis software. […]
In each complete current record, based on the percentage of peak current in the negative control, the percent inhibition of the concentration of each compound can be calculated. […]

The nature of data set [2]: Compound pharmacokinetic evaluation in CD-1 mice. The class given is in vivo, CD-1 mouse. The conditions noted are these: male, mouse, plasma. As to the method: Experimental purpose: compound pharmacokinetics were tested in CD-1 mice
CD-1 mouse (Male, 25-35 g, 6-9 weeks old, Shanghai Slack);
Experimental procedure: the pharmacological characteristics of the compound after intravenous and oral administration were tested in rodents by standard protocol, candidate compounds in the experiment was prepared into clear solutions to be administered to the mice in a single intravenous injection and orally. The intravenous and oral solvents were a certain proportion of an aqueous hydroxypropyl β-cyclodextrin solution or a physiological saline solution. Whole blood samples within 24 hours were collected, and centrifuged at 3000 g for 15 minutes, the supernatant was separated to obtain plasma samples, 4 times volume of acetonitrile solution containing internal standard was added to precipitate protein, centrifuging was conducted to take the supernatant, equal volume of water was added and centrifuging was conducted to take the supernatant to be sampled. The LC-MS/MS analysis method was used to quantitatively analyze the plasma concentration, and the pharmacokinetic parameters such as peak concentration, peak time, clearance rate, half-life, area under the drug concentration-time curve, and bioavailability were calculated.

Data set [3] in a line: Compound pharmacokinetic evaluation in SD rats. Format: in vivo. To be noted: male, Sprague-Dawley, rat, plasma. As to the method: Experimental purpose: compound pharmacokinetics were tested in SD rats
Sprague Dawley rats (male, 200-300 g, 7-9 weeks old, Shanghai Slack)
Experimental procedure: the pharmacological characteristics of the compound after intravenous and oral administration were tested in rodents by standard protocol, candidate compounds in the experiment was prepared into clear solutions to be administered to the rats in a single intravenous injection and orally. The intravenous and oral solvents were a certain proportion of an aqueous hydroxypropyl 3-cyclodextrin solution or a physiological saline solution. Whole blood samples within 24 hours were collected, and centrifuged at 3000 g for 15 minutes, the supernatant was separated to obtain plasma samples, 4 times volume of acetonitrile solution containing internal standard was added to precipitate protein, centrifuging was conducted to take the supernatant, equal volume of water was added and centrifuging was conducted to the supernatant to be sampled. The LC-MS/MS analysis method was used to quantitatively analyze the plasma concentration, and the pharmacokinetic parameters such as peak concentration, peak time, clearance rate, half-life, area under the drug concentration-time curve, and bioavailability were calculated.

Setting [4] is: po, read-out: Bioavailability F.
The mark [5] stands for this setting: single intravenous injection and oral, read-out: Peak Concentration Cmax.

hERG potassium channel, sequence (Q12809 whole entry): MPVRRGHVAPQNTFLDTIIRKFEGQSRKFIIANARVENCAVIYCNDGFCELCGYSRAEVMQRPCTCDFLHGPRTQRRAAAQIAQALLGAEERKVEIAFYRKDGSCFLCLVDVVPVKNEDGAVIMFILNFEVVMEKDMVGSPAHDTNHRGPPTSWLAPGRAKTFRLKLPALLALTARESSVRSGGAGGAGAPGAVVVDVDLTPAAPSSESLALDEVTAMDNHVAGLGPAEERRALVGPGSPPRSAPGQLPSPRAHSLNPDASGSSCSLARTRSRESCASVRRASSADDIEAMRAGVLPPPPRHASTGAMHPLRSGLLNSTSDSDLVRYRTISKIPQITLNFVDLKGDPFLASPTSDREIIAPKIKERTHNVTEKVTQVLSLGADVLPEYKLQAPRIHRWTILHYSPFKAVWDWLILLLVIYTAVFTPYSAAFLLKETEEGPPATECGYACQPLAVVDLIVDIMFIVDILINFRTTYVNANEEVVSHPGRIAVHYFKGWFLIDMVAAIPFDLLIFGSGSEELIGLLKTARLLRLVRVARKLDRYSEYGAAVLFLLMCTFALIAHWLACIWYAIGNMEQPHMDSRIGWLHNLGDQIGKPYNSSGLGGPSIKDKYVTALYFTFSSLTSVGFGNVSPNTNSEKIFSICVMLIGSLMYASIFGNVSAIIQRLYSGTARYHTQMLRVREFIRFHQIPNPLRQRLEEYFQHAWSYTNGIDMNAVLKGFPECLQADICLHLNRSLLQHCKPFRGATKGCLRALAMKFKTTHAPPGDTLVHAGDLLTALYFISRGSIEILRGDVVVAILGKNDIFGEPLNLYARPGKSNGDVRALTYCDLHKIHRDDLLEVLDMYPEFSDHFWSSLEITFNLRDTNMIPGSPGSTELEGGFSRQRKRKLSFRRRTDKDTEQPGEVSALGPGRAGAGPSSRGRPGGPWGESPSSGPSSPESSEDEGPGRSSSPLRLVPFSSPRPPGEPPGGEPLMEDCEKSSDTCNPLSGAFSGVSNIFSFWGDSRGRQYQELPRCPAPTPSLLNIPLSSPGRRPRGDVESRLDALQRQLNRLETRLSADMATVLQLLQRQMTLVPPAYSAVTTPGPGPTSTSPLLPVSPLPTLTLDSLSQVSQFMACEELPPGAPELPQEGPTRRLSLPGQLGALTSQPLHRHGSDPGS

For orientation: IC50 means the concentration at which inhibition is half-maximal. As a reminder, the Tmax is the time at which the peak concentration occurs. `Cl.Cn1nc(-c2ccc(OC/C(=C/F)CN)cc2)nc1C(F)F` [WX126]: in data set [1], the “Effect on liver fibrosis (Sirius-Red staining)” value is listed as “obvious improvement effect”. The “Effect on liver injury (HE staining score)” value in data set [1] is “obvious improvement effect”. In addition, the IC50 on hERG potassium channel (QPatch whole cell patch clamp, CHO-hERG, 0.24-30.00 μM) is more than 30 µM. In addition, the “Inhibition of hERG potassium current (in words)” value at hERG potassium channel (conclusion statement) was “weak inhibition”. In addition, the AUC in data set [2] (oral, read-out: Concentration Integral AUC) stood at 6.49 µM·h; in data set [3] (read-out: Concentration Integral AUC), 9.31 µM·h. Moreover, the Tmax was 0.5 h in data set [2] (oral, read-out: Peak Time Tmax) and 1.5 h in data set [3] (oral, read-out: Peak Time Tmax). Also, the bioavailability in data set [2] (setting [4]) is 102%; in data set [3] (setting [4]), 99%. Besides, the Cmax in data set [2] (setting [5]) amounted to 3530 nM; in data set [3] (setting [5]) it was 2340 nM.
